Data: ChEMBL document CHEMBL1136670, “Synthesis of quinolinyl/isoquinolinyl[a]pyrrolo [3,4-c] carbazoles as cyclin D1/CDK4 inhibitors” (Bioorg Med Chem Lett, 2003)

Key:
HCT-116 = test: Inhibition of human colon carcinoma (HCT116) cell proliferation; type: functional, cell-based
[1] = biological target: Cyclin-dependent kinase 4/cyclin D1 (Homo sapiens, UniProt P11802); test: Inhibitory activity against cyclin D1/ (cyclin dependent kinase) CDK4; type: protein-complex assay
NCI-H460 = test: Inhibition of non-small cell lung carcinoma (NCI-460) cell proliferation; type: functional, cell-based; conditions: Homo sapiens

Sequence of Cyclin-dependent kinase 4/cyclin D1 (P11802 whole entry): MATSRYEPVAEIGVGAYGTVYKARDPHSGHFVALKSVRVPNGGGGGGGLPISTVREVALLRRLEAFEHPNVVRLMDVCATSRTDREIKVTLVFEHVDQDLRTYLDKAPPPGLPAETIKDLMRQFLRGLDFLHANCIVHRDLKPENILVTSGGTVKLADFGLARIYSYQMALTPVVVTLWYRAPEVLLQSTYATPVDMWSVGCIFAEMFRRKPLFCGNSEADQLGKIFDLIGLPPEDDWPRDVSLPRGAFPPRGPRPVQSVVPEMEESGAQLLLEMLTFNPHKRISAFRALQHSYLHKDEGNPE
Sequence of Cyclin-dependent kinase 4/cyclin D1 (P24385 whole entry, further chain): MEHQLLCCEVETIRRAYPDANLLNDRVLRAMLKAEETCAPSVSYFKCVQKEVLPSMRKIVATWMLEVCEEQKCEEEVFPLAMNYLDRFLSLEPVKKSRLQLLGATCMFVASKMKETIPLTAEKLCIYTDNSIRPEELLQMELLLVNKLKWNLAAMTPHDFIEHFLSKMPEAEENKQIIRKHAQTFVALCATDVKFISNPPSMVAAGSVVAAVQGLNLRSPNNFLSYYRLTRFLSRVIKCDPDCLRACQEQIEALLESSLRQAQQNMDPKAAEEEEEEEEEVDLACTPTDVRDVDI

SMILES | IC50 (HCT-116) [nM] | IC50 [1] [nM] | IC50 (NCI-H460) [nM]
O=C1NC(=O)c2c1c1c(ccc3cccnc31)c1[nH]c3ccccc3c21 | 800 | > 2000 | 3530
O=C1NC(=O)c2c1c1c3ccccc3ncc1c1[nH]c3ccccc3c21 | 390 | 683 | 660
O=C1NC(=O)c2c1c1c3ccccc3cnc1c1[nH]c3c(CCO)cccc3c21 |  | > 2000 | 
O=C1NC(=O)c2c1c1c3ccccc3cnc1c1[nH]c3ccccc3c21 |  | > 2000 | 
COc1ccc2c(c1)[nH]c1c3cnc4ccccc4c3c3c(c21)C(=O)NC3=O |  | 210 | 390
O=C1NC(=O)c2c1c1c3ccncc3ccc1c1[nH]c3ccccc3c21 | 130 | 69 | 74
O=C1NC(=O)c2c1c1nc3ccccc3cc1c1[nH]c3ccccc3c21 | 5510 | > 10000 | 4040
O=C1NC(=O)c2c1c1c3ccccc3ncc1c1[nH]c3cc(Cl)ccc3c21 | 650 | > 2000 | 450
O=C1NC(=O)c2c1c1c3cccnc3ccc1c1[nH]c3ccccc3c21 | 430 | > 200 | 1910

Further lines, with some results ahead:

IC50 (HCT-116) [nM] | IC50 [1] [nM] | SMILES | IC50 (NCI-H460) [nM]
310 | 170 | CN(C)CCCn1c2ccccc2c2c3c(c4c5ccccc5cnc4c21)C(=O)NC3=O | 370
 | 1150 | O=C1NC(=O)c2c1c1c3ccccc3cnc1c1c2c2ccccc2n1CCCCO | 
 | 1190 | O=C1NC(=O)c2c1c1cnc3ccccc3c1c1c2c2ccccc2n1CCCO | 
160 | > 2000 | O=C1NC(=O)c2c1c1c3ccccc3cnc1c1c2c2ccccc2n1CCCO | 410
 | 1140 | CN(C)CCCCn1c2ccccc2c2c3c(c4c5ccccc5cnc4c21)C(=O)NC3=O | 
1950 | > 10000 | O=C1NC(=O)c2c1c1cnc3ccccc3c1c1[nH]c3ccccc3c21 | 930
